Source: ChEMBL document CHEMBL6083242, “Design and optimization of novel Tetrahydro-β-carboline-based HDAC inhibitors with potent activities against tumor cell growth and metastasis” (Bioorg Med Chem Lett, 2024)
Activity calls are given as the source filed them. The rule behind the calls is not given here.

What was measured:
MDA-MB-231 = experiment: Antiproliferative activity against human MDA-MB-231 cells assessed as inhibition of cell proliferation
HeLa = experiment: Antiproliferative activity against human HeLa cells assessed as inhibition of cell proliferation
A549 [1] = experiment: Antiproliferative activity against human A549 cells assessed as inhibition of cell proliferation
MCF7 = experiment: Antiproliferative activity against human MCF7 cells assessed as inhibition of cell proliferation
A549 [2] = experiment: Induction of apoptosis in human A549 cells at 0.5 to 5 uM incubated for 72 hrs by Annexin V/PI staining based flow cytometry analysis (reference value: 17.35%); type: functional; conditions: dose 0.5-5 µM
A549 [3] = experiment: Induction of apoptosis in human A549 cells assessed as upregulation of Bax expression incubated for 24 hrs by Western blot analysis; type: functional, cell-based; conditions: dose 0.5-5 µM
A549 [4] = experiment: Antimetastatic activity in human A549 cells assessed as reduction in cell migration incubated for 24 hrs by wound healing assay; type: functional, cell-based; conditions: dose 0.5-5 µM
A549 [5] = experiment: Induction of apoptosis in human A549 cells at 5 uM incubated for 72 hrs by Annexin V/PI staining based flow cytometry analysis relative to control; type: functional
A549 [6] = experiment: Induction of apoptosis in human A549 cells incubated for 72 hrs by Annexin V/PI staining based flow cytometry analysis; type: functional, cell-based; conditions: dose 0.5-5 µM
A549 [7] = experiment: Induction of cell cycle arrest in human A549 cells assessed as accumulation of cells at G2/M phase incubated for 24 hrs by flow cytometry analysis; type: functional, cell-based; conditions: dose 0.5-5 µM
A549 [8] = experiment: Induction of apoptosis in human A549 cells assessed as upregulation of PARP expression incubated for 24 hrs by Western blot analysis; type: functional, cell-based; conditions: dose 0.5-5 µM
A549 [9] = experiment: Induction of apoptosis in human A549 cells assessed as downregulation of Bcl-2 expression incubated for 24 hrs by Western blot analysis; type: functional, cell-based; conditions: dose 0.5-5 µM
A549 [10] = experiment: Induction of apoptosis in human A549 cells assessed as induction of gammaH2AX expression at 0.5 uM incubated for 24 hrs by immunofluorescence analysis; type: functional, cell-based
A549 [11] = experiment: Induction of apoptosis in human A549 cells assessed as gammaH2AX foci formation incubated for 24 hrs by immunofluorescence analysis; type: functional, cell-based; conditions: dose 0.5-5 µM
A549 [12] = experiment: Induction of cell cycle arrest in human A549 cells assessed as accumulation of cells in G2/M phase by measuring cyclin B1 level incubated for 24 hrs by Western blotting analysis; type: functional, cell-based; conditions: dose 0.5-5 µM
A549 [13] = experiment: Induction of cell cycle arrest in human A549 cells assessed as accumulation of cells in G2/M phase by measuring CDK1 level incubated for 24 hrs by Western blotting analysis; type: functional, cell-based; conditions: dose 0.5-5 µM
A549 [14] = experiment: Induction of apoptosis in human A549 cells assessed as upregulation of cleaved caspase 3 expression incubated for 24 hrs by Western blot analysis; type: functional, cell-based; conditions: dose 0.5-5 µM
A549 [15] = experiment: Induction of apoptosis in human A549 cells assessed as increase in ROS level incubated for 24 hrs by DCFH-DA staining based fluorescence analysis; type: functional, cell-based; conditions: dose 0.5-5 µM

IC50 (MDA-MB-231) [nM] | IC50 (HeLa) [nM] | IC50 (A549 [1]) [nM] | IC50 (MCF7) [nM] | SMILES | Activity (A549 [5]) [%] | also measured
196000 | 430 | 2290 | 1840 | O=C(CCCCCCC(=O)N1CCc2c([nH]c3ccccc23)C1)NO | – | –
2100 | 184000 | 2690 | 1210 | O=C(CCCCCCC(=O)N1CCc2c(n(CC3CC3)c3ccccc23)C1)NO | – | –
6740 | 6090 | 1090 | 5670 | CC(=O)N1CCc2c(n(CCCCCCC(=O)NO)c3ccccc23)C1 | 43.95 | Activity (A549 [2]): 24.17%; Activity (A549 [3]): Dose-dependent-effect; Activity (A549 [4]): Dose-dependent-effect; Activity (A549 [6]): Dose-dependent-effect; Activity (A549 [7]): Dose-dependent-effect; Activity (A549 [8]): Dose-dependent-effect; Activity (A549 [9]): Dose-dependent-effect; Activity (A549 [10]): Active; Activity (A549 [11]): Dose-dependent-effect; Activity (A549 [12]): Dose-dependent-effect; Activity (A549 [13]): Dose-dependent-effect; Activity (A549 [14]): Dose-dependent-effect; Activity (A549 [15]): Dose-dependent-effect
1690 | 6050 | 4150 | 3040 | CC(C)Cn1c2c(c3ccccc31)CCN(C(=O)CCCCCCC(=O)NO)C2 | – | –
– | – | – | – | O=C(CCCCCCC(=O)Nc1ccccc1)NO [VORINOSTAT] | 34.83 | –
